These results are taken from patent US8034931B2, “Process for producing substituted aminoquinazolinone derivative, intermediate therefor, and pest control agent” (Nihon Nohyaku Co., Ltd., priority 2003, dated 2011).

What all share (type): in vivo
The test system of data set [1] is Green Peach Aphid (Myzus persicae). Kind of data set: Insecticidal effect on green peach aphid, foliar spray on potted Chinese cabbage (Test Example 1). The following applies: 500 ppm liquid chemical, sprayed on Chinese cabbage stalks and leaves, six days after the spraying. The source says: Insecticidal Effect on Green Peach Aphid (Myzus persicae)
A Chinese cabbage plant was planted in each of plastic pots with a diameter of 8 cm and a height of 8 cm, and green peach aphids were propagated on the plant, after which the parasites in each pot were counted. A preparation containing each compound of the present invention listed in Tables 2 to 4 or each comparative compound as an active ingredient was dispersed in and diluted with water to obtain a 500 ppm liquid chemical. The stalks and leaves of the potted Chinese cabbage plants were sprayed with the liquid chemical and air-dried, and then the pots were stored in a greenhouse. Six days after the spraying, green peach aphids parasitic on each Chinese cabbage plant were counted and the control efficacy was calculated by the following equation, whereby the insecticidal effect was judged according to the criterion shown below. Control efficacy=100−{(T×Ca)/(Ta×C)}×100 • Ta: number of parasites before spraying in treated group, • T: number of parasites after spraying in treated group, • Ca: number of parasites before spraying in untreated group, • C: number of parasites after spraying in untreated group.

In data set [2] the test system is Greenhouse Whitefly (Trialeuroddes vaporariorum). Kind of data set: Insecticidal effect on greenhouse whitefly, sprayed tomato leaf (Test Examples 2 and 4). The conditions noted are these: 100 ppm liquid chemical, sprayed tomato leaf, 20 adult whiteflies, four days after the inoculation. From the text:
Insecticidal Effect on Greenhouse Whitefly (Trialeuroddes vaporariorum)
A preparation containing each compound of the present invention listed in Tables 2 to 4 or each comparative compound as an active ingredient was dispersed in and diluted with water to obtain a 100 ppm liquid chemical. A tomato leaf set in a 20-ml vial with its stalk immersed in water was sprayed with the liquid chemical with a spray gun on a turntable. After air-dryness, the treated leaf was placed in a glass cylinder and inoculated with 20 adult greenhouse whiteflies. After the treatment, the glass cylinder was placed in a greenhouse. Four days after the inoculation, the living insects were counted. The corrected mortality was calculated according to the following equation and the insecticidal effect was judged according to the criterion shown below.
[formula] Criterion for Judgment:
Insecticidal Effect on Greenhouse (Trialeuroddes vaporariorum) at a Low Dosage
The same test as in Test Example 2 was carried out except for changing the concentration of the liquid chemical to 3 ppm.

Data set [3] concerns White Peach Scale (Pseudaulacaspis pentagona). Kind of data set: Insecticidal effect on white peach scale, sprayed potato tuber (Test Examples 3 and 5). The conditions noted are these: 100 ppm liquid chemical, potato tuber with first-instar larvae, fourteen days after the treatment. The source says: Insecticidal Effect on White Peach Scale (Pseudaulacaspis pentagona)
A preparation containing each compound of the present invention listed in Tables 2 to 4 or each comparative compound as an active ingredient was dispersed in and diluted with water to obtain a 100 ppm liquid chemical. A potato tuber with first-instar larvae of white peach scale as parasites was sprayed with the liquid chemical with a spray gun. Fourteen days after the treatment, the living insects were counted. In the same manner as in Test Example 2, the corrected mortality was calculated and the insecticidal effect was judged.
Insecticidal Effect on White Peach Scale (Pseudaulacaspis pentagona) at a Low Dosage
The same test as in Test Example 3 was carried out except for changing the concentration of the liquid chemical to 30 ppm.

`CC(C)C(=O)N1C(=O)N(N=Cc2cccnc2)Cc2cc(C(F)(C(F)(F)F)C(F)(F)F)ccc21` [compound 11]: the “Test Example 1: insecticidal effect (control efficacy)” value (“Test Example 1: insecticidal effect” below) in data set [1] is reported as “A (Control efficacy 100%)”. Besides, the “Test Example 2: insecticidal effect (corrected mortality)” value (“Test Example 2: insecticidal effect” for short) in data set [2] is “A (Corrected mortality 100%)”. In addition, the “Test Example 3: insecticidal effect (corrected mortality)” value (“Test Example 3: insecticidal effect” below) in data set [3] is “A (Corrected mortality 100%)”.

For `CCOC(=O)N1C(=O)N(N=Cc2cccnc2)Cc2cc(C(F)(C(F)(F)F)C(F)(F)F)ccc21` [compound 17], the “Test Example 1: insecticidal effect” value in data set [1] was “A (Control efficacy 100%)”. The “Test Example 2: insecticidal effect” value in data set [2] was “A (Corrected mortality 100%)”. In data set [3], the “Test Example 3: insecticidal effect” value is “A (Corrected mortality 100%)”.

Turning to `CCCCOC(=O)N1C(=O)N(N=Cc2cccnc2)Cc2cc(C(F)(C(F)(F)F)C(F)(F)F)ccc21` [compound 20], in data set [1], the “Test Example 1: insecticidal effect” value was “A (Control efficacy 100%)”. In addition, the “Test Example 2: insecticidal effect” value in data set [2] was “A (Corrected mortality 100%)”. Also, the “Test Example 3: insecticidal effect” value in data set [3] was “A (Corrected mortality 100%)”.

Consider `O=C(c1ccc(C(F)(F)F)cc1)N1C(=O)N(N=Cc2cccnc2)Cc2cc(C(F)(C(F)(F)F)C(F)(F)F)ccc21` [compound 27], for which the “Test Example 1: insecticidal effect” value in data set [1] was “A (Control efficacy 100%)”. Besides, in data set [2], the “Test Example 2: insecticidal effect” value is given as “A (Corrected mortality 100%)”. Besides, the “Test Example 3: insecticidal effect” value in data set [3] is “A (Corrected mortality 100%)”.

As to `COc1ccccc1C(=O)N1C(=O)N(N=Cc2cccnc2)Cc2cc(C(F)(C(F)(F)F)C(F)(F)F)ccc21` [compound 29], the “Test Example 1: insecticidal effect” value in data set [1] is “A (Control efficacy 100%)”. Also, the “Test Example 2: insecticidal effect” value in data set [2] is listed as “A (Corrected mortality 100%)”. Further, in data set [3], the “Test Example 3: insecticidal effect” value was “A (Corrected mortality 100%)”.

As to `CCCCC(=O)N1C(=O)N(N=Cc2cccnc2)Cc2cc(C(F)(C(F)(F)F)C(F)(F)F)ccc21` [compound 12], the “Test Example 1: insecticidal effect” value in data set [1] was “A (Control efficacy 100%)”. In data set [2], the “Test Example 2: insecticidal effect” value is “A (Corrected mortality 100%)”. In addition, in data set [3], the “Test Example 3: insecticidal effect” value was “A (Corrected mortality 100%)”.

Consider `CCCOC(=O)N1C(=O)N(N=Cc2cccnc2)Cc2cc(C(F)(C(F)(F)F)C(F)(F)F)ccc21` [compound 18], for which the “Test Example 1: insecticidal effect” value in data set [1] is recorded as “A (Control efficacy 100%)”. For the same compound, the “Test Example 2: insecticidal effect” value in data set [2] is “A (Corrected mortality 100%)”. Besides, in data set [3], the “Test Example 3: insecticidal effect” value is on record as “A (Corrected mortality 100%)”.

On to `O=C(c1ccc(-c2ccccc2)cc1)N1C(=O)N(N=Cc2cccnc2)Cc2cc(C(F)(C(F)(F)F)C(F)(F)F)ccc21` [compound 32], for which the “Test Example 1: insecticidal effect” value in data set [1] is “A (Control efficacy 100%)”. Further, the “Test Example 2: insecticidal effect” value in data set [2] is given as “A (Corrected mortality 100%)”. Also, the “Test Example 3: insecticidal effect” value in data set [3] is reported as “A (Corrected mortality 100%)”.

For the compound `O=C(c1cccc(C(F)(F)F)c1)N1C(=O)N(N=Cc2cccnc2)Cc2cc(C(F)(C(F)(F)F)C(F)(F)F)ccc21` [compound 26], in data set [1], the “Test Example 1: insecticidal effect” value is listed as “A (Control efficacy 100%)”. Moreover, the “Test Example 2: insecticidal effect” value in data set [2] is on record as “A (Corrected mortality 100%)”. For the same compound, the “Test Example 3: insecticidal effect” value in data set [3] was “A (Corrected mortality 100%)”.

Regarding `O=C(c1ccccc1C(F)(F)F)N1C(=O)N(N=Cc2cccnc2)Cc2cc(C(F)(C(F)(F)F)C(F)(F)F)ccc21` [compound 25], the “Test Example 1: insecticidal effect” value in data set [1] is reported as “A (Control efficacy 100%)”. Further, the “Test Example 2: insecticidal effect” value in data set [2] is recorded as “A (Corrected mortality 100%)”. Also, the “Test Example 3: insecticidal effect” value in data set [3] is “A (Corrected mortality 100%)”.

`O=C(c1ccccc1)N1C(=O)N(N=Cc2cccnc2)Cc2cc(C(F)(C(F)(F)F)C(F)(F)F)ccc21` [compound 24]: the “Test Example 1: insecticidal effect” value in data set [1] is reported as “A (Control efficacy 100%)”. The “Test Example 2: insecticidal effect” value in data set [2] is listed as “A (Corrected mortality 100%)”. Further, in data set [3], the “Test Example 3: insecticidal effect” value is on record as “A (Corrected mortality 100%)”.

Regarding `Cc1cccc(C(=O)N2C(=O)N(N=Cc3cccnc3)Cc3cc(C(F)(C(F)(F)F)C(F)(F)F)ccc32)c1` [compound 30], the “Test Example 1: insecticidal effect” value in data set [1] is given as “A (Control efficacy 100%)”. Moreover, the “Test Example 2: insecticidal effect” value in data set [2] is recorded as “A (Corrected mortality 100%)”. The “Test Example 3: insecticidal effect” value in data set [3] is recorded as “A (Corrected mortality 100%)”.

Take `O=C(C1CC1)N1C(=O)N(N=Cc2cccnc2)Cc2cc(C(F)(C(F)(F)F)C(F)(F)F)ccc21` [compound 14]: in data set [1], the “Test Example 1: insecticidal effect” value was “A (Control efficacy 100%)”. Further, the “Test Example 2: insecticidal effect” value in data set [2] is recorded as “A (Corrected mortality 100%)”. Besides, the “Test Example 3: insecticidal effect” value in data set [3] was “A (Corrected mortality 100%)”.

As for `O=CN1C(=O)N(N=Cc2cccnc2)Cc2cc(C(F)(C(F)(F)F)C(F)(F)F)ccc21` [compound 7], the “Test Example 1: insecticidal effect” value in data set [1] was “A (Control efficacy 100%)”. Besides, the “Test Example 2: insecticidal effect” value in data set [2] is reported as “A (Corrected mortality 100%)”. Further, the “Test Example 3: insecticidal effect” value in data set [3] was “A (Corrected mortality 100%)”.

Take `N#CCN1C(=O)N(N=Cc2cccnc2)Cc2cc(C(F)(C(F)(F)F)C(F)(F)F)ccc21` [compound 6]: in data set [1], the “Test Example 1: insecticidal effect” value is listed as “A (Control efficacy 100%)”. Further, in data set [2], the “Test Example 2: insecticidal effect” value is recorded as “A (Corrected mortality 100%)”. Also, in data set [3], the “Test Example 3: insecticidal effect” value is “A (Corrected mortality 100%)”.

`O=C(c1ccc(F)cc1)N1C(=O)N(N=Cc2cccnc2)Cc2cc(C(F)(C(F)(F)F)C(F)(F)F)ccc21` [compound 28]: the “Test Example 1: insecticidal effect” value in data set [1] is on record as “A (Control efficacy 100%)”. The “Test Example 2: insecticidal effect” value in data set [2] was “A (Corrected mortality 100%)”. Also, the “Test Example 3: insecticidal effect” value in data set [3] is “A (Corrected mortality 100%)”.

On to `CC(=O)N1C(=O)N(N=Cc2cccnc2)Cc2cc(C(F)(C(F)(F)F)C(F)(F)F)ccc21` [compound No. 8, 1-acetyl-3-(3-pyridylmethylideneamino)-3,4-dihydro-6-[1,2,2,2-tetrafluoro-1-(trifluoromethyl)ethyl]-2(1H)-quinazolinone], for which the “Test Example 1: insecticidal effect” value in data set [1] is “A (Control efficacy 100%)”. Moreover, the “Test Example 2: insecticidal effect” value in data set [2] is recorded as “A (Corrected mortality 100%)”. Moreover, in data set [3], the “Test Example 3: insecticidal effect” value was “A (Corrected mortality 100%)”.

Turning to `CCCC(=O)N1C(=O)N(N=Cc2cccnc2)Cc2cc(C(F)(C(F)(F)F)C(F)(F)F)ccc21` [compound 10], in data set [1], the “Test Example 1: insecticidal effect” value was “A (Control efficacy 100%)”. In addition, the “Test Example 2: insecticidal effect” value in data set [2] is “A (Corrected mortality 100%)”. Besides, the “Test Example 3: insecticidal effect” value in data set [3] is “A (Corrected mortality 100%)”.

For the compound `CN1C(=O)N(N=Cc2cccnc2)Cc2cc(C(F)(C(F)(F)F)C(F)(F)F)ccc21` [compound No. 1, 1-methyl-3-(3-pyridylmethylideneamino)-3,4-dihydro-6-[1,2,2,2-tetrafluoro-1-(trifluoromethyl)ethyl]-2(1H)-quinazolinone], the “Test Example 1: insecticidal effect” value in data set [1] is given as “A (Control efficacy 100%)”. In data set [2], the “Test Example 2: insecticidal effect” value was “A (Corrected mortality 100%)”. Besides, the “Test Example 3: insecticidal effect” value in data set [3] is “A (Corrected mortality 100%)”.
